# From ChEMBL document CHEMBL5303761, “Data for DCP probe BI-3231” (2023)
# Tests used:
# [1] = molecular target: D(3) dopamine receptor (Homo sapiens) (UniProt P35462); details: Compound concentration 10.0 uM
# [2] = molecular target: Histamine H3 receptor (Homo sapiens) (UniProt Q9Y5N1); details: Compound concentration 10.0 uM
# [3] = molecular target: 5-hydroxytryptamine receptor 5A (Homo sapiens) (UniProt P47898); details: Compound concentration 10.0 uM
# [4] = molecular target: Neuronal acetylcholine receptor; alpha4/beta2 (Homo sapiens) (UniProt P17787+P43681); assay: N_NEURO_A4B2 Eurofins SafetyScreen44 (BI); assay type: protein-complex assay; details: filed as agonist, Compound concentration 10.0 uM
# [5] = molecular target: Muscarinic acetylcholine receptor M3 (Homo sapiens) (UniProt P20309); assay: M3/H Eurofins SafetyScreen44 (BI); details: Compound concentration 10.0 uM
# [6] = molecular target: Histamine H1 receptor (Homo sapiens) (UniProt P35367); details: Compound concentration 10.0 uM
# [7] = molecular target: Histamine H2 receptor (Homo sapiens) (UniProt P25021); details: Compound concentration 10.0 uM
# [8] = molecular target: T1, Muscarinic acetylcholine receptor M1 (Homo sapiens) (UniProt P11229); assay: M1/H Eurofins SafetyScreen44 (BI); details: Compound concentration 10.0 uM
# T1 sequence (whole entry): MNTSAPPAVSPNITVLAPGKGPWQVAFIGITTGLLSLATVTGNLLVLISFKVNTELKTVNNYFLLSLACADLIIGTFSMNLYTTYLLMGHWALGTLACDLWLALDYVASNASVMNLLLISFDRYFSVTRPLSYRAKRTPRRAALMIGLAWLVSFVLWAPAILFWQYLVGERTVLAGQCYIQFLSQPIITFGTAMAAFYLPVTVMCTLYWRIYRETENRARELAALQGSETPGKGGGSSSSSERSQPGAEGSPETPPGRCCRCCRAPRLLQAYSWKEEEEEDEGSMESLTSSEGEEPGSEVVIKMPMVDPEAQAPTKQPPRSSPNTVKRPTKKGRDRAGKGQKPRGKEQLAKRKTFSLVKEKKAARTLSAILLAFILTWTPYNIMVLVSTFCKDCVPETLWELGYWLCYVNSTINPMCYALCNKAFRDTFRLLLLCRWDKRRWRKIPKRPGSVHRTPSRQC
# [9] = molecular target: Kappa-type opioid receptor (Homo sapiens) (UniProt P41145); assay: KAPPA(KOP)_HU Eurofins SafetyScreen44 (BI); details: Compound concentration 10.0 uM
# [10] = molecular target: Sodium-dependent dopamine transporter (Homo sapiens) (UniProt Q01959); details: Compound concentration 10.0 uM
# [11] = molecular target: D(4) dopamine receptor (Homo sapiens) (UniProt P21917); details: Compound concentration 10.0 uM
# [12] = molecular target: Muscarinic acetylcholine receptor M4 (Homo sapiens) (UniProt P08173); details: Compound concentration 10.0 uM
# [13] = molecular target: T2, 5-hydroxytryptamine receptor 1A (Homo sapiens) (UniProt P08908); assay: 5HT1A/H Eurofins SafetyScreen44 (BI); details: Compound concentration 10.0 uM
# T2 sequence (whole entry): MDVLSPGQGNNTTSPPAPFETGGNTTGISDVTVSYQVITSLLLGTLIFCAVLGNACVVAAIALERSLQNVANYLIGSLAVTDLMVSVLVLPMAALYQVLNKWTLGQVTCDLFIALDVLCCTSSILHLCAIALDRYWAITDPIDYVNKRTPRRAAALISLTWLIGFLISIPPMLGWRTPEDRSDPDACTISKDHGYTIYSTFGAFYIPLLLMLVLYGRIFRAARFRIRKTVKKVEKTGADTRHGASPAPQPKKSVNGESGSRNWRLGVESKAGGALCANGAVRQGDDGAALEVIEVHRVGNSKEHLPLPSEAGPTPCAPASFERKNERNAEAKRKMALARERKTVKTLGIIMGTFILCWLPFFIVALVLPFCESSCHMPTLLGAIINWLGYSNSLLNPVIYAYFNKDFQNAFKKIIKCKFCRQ
# [14] = molecular target: 5-hydroxytryptamine receptor 2B (Homo sapiens) (UniProt P41595); details: Compound concentration 10.0 uM
# [15] = molecular target: Vasopressin V1a receptor (Homo sapiens) (UniProt P37288); assay: V1A/HUM Eurofins SafetyScreen44 (BI); details: Compound concentration 10.0 uM
# [16] = molecular target: cGMP-inhibited 3',5'-cyclic phosphodiesterase 3A (Homo sapiens) (UniProt Q14432); assay: PDE3A Eurofins SafetyScreen44 (BI); details: Compound concentration 10.0 uM
# [17] = molecular target: 5-hydroxytryptamine receptor 1B (Homo sapiens) (UniProt P28222); assay: 5HT1B(H) Eurofins SafetyScreen44 (BI); details: filed as antagonist, Compound concentration 10.0 uM
# [18] = molecular target: Sodium-dependent serotonin transporter (Homo sapiens) (UniProt P31645); details: Compound concentration 10.0 uM
# [19] = molecular target: Muscarinic acetylcholine receptor M3 (Homo sapiens) (UniProt P20309); details: Compound concentration 10.0 uM
# [20] = molecular target: Beta-1 adrenergic receptor (Homo sapiens) (UniProt P08588); assay: BETA1/HUM Eurofins SafetyScreen44 (BI); details: Compound concentration 10.0 uM
# [21] = molecular target: T3, Muscarinic acetylcholine receptor M2 (Homo sapiens) (UniProt P08172); details: Compound concentration 10.0 uM
# T3 sequence (whole entry): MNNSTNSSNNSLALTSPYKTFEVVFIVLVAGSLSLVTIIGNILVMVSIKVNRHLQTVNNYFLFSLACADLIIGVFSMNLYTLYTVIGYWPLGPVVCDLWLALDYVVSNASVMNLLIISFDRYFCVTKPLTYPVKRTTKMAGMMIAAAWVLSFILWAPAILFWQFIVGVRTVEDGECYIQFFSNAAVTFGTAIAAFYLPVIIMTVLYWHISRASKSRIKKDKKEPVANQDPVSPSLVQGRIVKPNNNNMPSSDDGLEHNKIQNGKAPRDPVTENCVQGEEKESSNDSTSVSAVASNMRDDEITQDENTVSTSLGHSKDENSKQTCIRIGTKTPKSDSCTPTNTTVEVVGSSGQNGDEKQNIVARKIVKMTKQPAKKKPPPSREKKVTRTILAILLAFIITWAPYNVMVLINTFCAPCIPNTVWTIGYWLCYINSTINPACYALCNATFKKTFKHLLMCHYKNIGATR
# [22] = molecular target: Muscarinic acetylcholine receptor M5 (Homo sapiens) (UniProt P08912); details: Compound concentration 10.0 uM
# [23] = molecular target: Cholecystokinin receptor type A (Homo sapiens) (UniProt P32238); assay: CCKA/H Eurofins SafetyScreen44 (BI); details: Compound concentration 10.0 uM
# Muscarinic acetylcholine receptor M4 (Homo sapiens), sequence (P08173 whole entry): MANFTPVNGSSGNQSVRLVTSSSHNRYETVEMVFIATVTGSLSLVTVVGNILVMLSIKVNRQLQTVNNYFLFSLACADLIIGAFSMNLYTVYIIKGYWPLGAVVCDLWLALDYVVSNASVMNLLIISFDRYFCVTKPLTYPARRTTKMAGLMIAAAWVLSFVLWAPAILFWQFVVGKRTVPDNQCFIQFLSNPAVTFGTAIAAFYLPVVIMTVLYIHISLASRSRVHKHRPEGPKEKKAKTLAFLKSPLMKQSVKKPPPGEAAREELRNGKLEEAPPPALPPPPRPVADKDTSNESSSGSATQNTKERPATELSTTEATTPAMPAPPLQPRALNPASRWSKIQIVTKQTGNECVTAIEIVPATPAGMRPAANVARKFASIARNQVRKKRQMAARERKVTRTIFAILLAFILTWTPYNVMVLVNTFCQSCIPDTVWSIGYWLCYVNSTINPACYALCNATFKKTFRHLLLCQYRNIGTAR
# 5-hydroxytryptamine receptor 2B (Homo sapiens), sequence (P41595 whole entry): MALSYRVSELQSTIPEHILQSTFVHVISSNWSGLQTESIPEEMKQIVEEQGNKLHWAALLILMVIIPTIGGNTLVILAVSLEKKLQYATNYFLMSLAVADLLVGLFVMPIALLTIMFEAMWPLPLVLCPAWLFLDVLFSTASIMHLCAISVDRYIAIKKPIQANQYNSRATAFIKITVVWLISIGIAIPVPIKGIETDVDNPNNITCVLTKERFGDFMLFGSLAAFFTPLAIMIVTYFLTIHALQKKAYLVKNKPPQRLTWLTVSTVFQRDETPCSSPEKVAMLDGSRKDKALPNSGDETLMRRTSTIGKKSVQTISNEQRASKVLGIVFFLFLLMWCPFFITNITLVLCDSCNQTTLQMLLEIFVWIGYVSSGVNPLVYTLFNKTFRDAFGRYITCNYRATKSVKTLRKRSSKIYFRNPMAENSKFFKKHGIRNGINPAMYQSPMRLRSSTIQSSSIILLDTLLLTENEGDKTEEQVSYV
# Muscarinic acetylcholine receptor M5 (Homo sapiens), sequence (P08912 whole entry): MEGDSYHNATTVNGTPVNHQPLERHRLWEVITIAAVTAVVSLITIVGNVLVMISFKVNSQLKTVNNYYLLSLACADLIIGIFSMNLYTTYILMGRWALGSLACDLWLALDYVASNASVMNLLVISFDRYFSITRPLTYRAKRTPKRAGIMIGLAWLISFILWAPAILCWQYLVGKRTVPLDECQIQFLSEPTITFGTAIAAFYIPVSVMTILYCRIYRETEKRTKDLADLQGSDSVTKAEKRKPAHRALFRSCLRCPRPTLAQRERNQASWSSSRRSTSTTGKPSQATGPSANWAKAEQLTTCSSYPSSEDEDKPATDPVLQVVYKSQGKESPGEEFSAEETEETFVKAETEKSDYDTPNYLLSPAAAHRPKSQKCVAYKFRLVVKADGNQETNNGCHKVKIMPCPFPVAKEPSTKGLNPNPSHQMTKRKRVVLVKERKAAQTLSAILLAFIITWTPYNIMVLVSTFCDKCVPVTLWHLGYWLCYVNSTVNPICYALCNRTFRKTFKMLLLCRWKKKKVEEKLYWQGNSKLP
# Histamine H2 receptor (Homo sapiens), sequence (P25021 whole entry): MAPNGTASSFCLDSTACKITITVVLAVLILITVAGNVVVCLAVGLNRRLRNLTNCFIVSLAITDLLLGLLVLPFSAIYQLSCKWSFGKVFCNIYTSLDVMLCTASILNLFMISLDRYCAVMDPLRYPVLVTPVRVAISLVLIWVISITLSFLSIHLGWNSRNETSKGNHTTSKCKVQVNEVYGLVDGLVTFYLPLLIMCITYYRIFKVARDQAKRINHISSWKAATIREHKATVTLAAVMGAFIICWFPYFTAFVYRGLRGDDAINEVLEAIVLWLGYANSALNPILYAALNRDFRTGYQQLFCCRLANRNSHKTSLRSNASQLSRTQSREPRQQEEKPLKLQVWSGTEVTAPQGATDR
# D(3) dopamine receptor (Homo sapiens), sequence (P35462 whole entry): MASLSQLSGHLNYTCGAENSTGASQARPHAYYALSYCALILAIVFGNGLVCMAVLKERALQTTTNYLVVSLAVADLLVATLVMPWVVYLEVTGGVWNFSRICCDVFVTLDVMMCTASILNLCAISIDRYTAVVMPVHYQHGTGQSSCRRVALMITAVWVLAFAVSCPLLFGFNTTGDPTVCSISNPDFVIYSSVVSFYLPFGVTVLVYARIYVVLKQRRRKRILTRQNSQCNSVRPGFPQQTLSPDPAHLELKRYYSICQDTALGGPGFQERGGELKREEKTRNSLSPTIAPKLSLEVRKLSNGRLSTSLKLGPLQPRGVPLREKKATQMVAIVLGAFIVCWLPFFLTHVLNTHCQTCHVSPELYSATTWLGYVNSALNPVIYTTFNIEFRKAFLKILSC
# 5-hydroxytryptamine receptor 5A (Homo sapiens), sequence (P47898 whole entry): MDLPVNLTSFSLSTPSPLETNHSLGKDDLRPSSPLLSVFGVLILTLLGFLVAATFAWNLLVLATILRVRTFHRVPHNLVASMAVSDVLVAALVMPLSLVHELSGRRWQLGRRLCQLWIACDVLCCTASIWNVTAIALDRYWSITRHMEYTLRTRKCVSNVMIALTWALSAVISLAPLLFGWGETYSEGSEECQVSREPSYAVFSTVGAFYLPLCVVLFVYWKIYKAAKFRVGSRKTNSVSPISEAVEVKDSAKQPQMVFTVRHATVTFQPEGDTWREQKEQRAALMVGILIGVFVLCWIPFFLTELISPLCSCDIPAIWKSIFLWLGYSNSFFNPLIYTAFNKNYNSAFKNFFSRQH
# Muscarinic acetylcholine receptor M3 (Homo sapiens), sequence (P20309 whole entry, looked up): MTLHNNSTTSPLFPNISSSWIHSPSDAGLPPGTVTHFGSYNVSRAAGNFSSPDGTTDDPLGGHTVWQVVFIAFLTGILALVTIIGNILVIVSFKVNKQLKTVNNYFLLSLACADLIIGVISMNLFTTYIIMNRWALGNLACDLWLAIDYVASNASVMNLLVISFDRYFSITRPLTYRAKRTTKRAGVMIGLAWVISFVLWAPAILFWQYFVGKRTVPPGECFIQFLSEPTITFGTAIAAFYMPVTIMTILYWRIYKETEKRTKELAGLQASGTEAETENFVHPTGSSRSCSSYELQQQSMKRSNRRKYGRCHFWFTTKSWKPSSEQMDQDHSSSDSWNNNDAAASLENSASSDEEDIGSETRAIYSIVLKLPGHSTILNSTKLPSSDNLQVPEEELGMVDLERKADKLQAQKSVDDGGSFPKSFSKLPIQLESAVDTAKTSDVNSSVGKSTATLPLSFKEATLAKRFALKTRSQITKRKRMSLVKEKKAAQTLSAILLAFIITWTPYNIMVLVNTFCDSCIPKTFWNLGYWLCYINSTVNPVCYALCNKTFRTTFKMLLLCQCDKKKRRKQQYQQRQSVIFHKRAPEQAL
# Sodium-dependent serotonin transporter (Homo sapiens), sequence (P31645 whole entry, looked up): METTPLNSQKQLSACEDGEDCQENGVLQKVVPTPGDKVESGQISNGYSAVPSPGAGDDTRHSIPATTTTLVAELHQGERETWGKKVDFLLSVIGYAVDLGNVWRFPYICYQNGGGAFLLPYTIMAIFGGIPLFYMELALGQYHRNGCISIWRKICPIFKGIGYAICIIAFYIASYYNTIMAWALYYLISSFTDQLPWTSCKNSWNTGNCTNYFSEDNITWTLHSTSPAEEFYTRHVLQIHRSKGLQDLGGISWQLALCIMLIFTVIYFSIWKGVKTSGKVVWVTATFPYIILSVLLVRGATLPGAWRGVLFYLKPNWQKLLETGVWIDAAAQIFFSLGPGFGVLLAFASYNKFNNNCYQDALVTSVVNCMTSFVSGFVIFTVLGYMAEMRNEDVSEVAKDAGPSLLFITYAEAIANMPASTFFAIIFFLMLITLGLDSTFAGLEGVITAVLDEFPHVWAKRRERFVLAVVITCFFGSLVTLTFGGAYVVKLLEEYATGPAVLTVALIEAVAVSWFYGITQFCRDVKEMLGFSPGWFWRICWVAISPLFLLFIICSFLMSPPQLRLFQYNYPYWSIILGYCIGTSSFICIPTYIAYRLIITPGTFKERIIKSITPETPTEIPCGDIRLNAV
# D(4) dopamine receptor (Homo sapiens), sequence (P21917 whole entry): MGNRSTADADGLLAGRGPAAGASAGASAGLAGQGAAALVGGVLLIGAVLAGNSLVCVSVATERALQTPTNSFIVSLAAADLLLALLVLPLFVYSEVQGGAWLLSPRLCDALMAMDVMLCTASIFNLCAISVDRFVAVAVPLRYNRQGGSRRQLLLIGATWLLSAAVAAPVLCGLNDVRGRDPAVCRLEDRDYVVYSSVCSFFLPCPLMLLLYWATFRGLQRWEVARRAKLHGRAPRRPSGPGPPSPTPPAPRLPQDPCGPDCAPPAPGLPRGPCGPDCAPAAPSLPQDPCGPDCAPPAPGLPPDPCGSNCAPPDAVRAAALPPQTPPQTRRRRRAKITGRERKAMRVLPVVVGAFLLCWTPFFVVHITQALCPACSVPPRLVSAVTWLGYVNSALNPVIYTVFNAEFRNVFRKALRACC
# Histamine H1 receptor (Homo sapiens), sequence (P35367 whole entry): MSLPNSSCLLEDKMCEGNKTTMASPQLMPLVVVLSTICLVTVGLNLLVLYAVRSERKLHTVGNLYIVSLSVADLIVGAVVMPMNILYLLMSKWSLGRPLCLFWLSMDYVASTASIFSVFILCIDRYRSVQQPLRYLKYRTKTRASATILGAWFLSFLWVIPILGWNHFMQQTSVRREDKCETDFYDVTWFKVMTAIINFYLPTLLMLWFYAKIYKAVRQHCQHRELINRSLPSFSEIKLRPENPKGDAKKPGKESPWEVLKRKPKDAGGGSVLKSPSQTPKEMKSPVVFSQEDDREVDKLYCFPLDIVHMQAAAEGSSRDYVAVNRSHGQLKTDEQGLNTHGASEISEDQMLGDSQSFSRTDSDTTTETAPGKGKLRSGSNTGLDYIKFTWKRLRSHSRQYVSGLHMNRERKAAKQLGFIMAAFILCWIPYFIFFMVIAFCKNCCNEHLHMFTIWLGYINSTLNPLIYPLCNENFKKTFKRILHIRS
inhibition [1],inhibition [2],inhibition [3],inhibition [6],inhibition [7],inhibition [10],inhibition [11],inhibition [12],inhibition [14],inhibition [18],inhibition [19],SMILES,residual activity [4],residual activity [5],residual activity [8],residual activity [9],residual activity [13],residual activity [15],residual activity [16],residual activity [17],residual activity [20],also measured
-2.24%,11%,8.13%,-3.42%,-1.31%,12.4%,2.36%,0.65%,28.5%,-7.45%,-1.37%,CCn1c(=O)c(C)cn(Cc2nnc(-c3ccc(F)c(OC)c3F)s2)c1=O,107%,107%,100%,110%,94%,103%,93%,103%,94%,inhibition [21]: -0.14%; inhibition [22]: 0.59%; residual activity [23]: 99%
7.03%,0.98%,4.72%,8.66%,-3.03%,24.9%,9.62%,-2.34%,-8.82%,-3.65%,-3.96%,CCn1c(=O)c(C)cn(Cc2nnc(-c3ccc(F)c(O)c3F)s2)c1=O,109%,96%,99%,94%,101%,100%,94%,93%,95%,inhibition [21]: -5.24%; inhibition [22]: -6.35%; residual activity [23]: 78%
